Calls of active or inactive are those of the source. No rule for the calls is given here.
target: Muscarinic acetylcholine receptor M1 (Homo sapiens) (UniProt P11229); assay: ACh-evoked M1 calcium response modulation – cell-based, human M1, selectivity assay for M5 NAM discovery project (AID 743098); conditions: CHO-K1 hM1 calcium flux, Fluo-4, ACh EC20; at 30 µM; hits give low values
Sequence (P11229 whole entry, looked up): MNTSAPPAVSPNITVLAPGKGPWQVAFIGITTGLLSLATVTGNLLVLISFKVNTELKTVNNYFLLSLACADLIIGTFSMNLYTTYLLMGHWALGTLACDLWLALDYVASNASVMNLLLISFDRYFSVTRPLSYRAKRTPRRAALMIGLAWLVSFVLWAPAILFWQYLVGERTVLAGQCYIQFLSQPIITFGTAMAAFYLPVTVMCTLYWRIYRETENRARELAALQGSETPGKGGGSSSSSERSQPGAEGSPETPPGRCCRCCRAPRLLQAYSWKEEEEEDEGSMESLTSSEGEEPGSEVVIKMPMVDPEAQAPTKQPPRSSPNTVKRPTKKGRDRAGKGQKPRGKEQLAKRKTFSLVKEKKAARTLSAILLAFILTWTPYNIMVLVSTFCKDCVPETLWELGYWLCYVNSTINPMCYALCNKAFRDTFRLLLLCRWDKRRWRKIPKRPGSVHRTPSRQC

response, % of max ACh, inactive:
O=C(c1cc(F)cc(F)c1)N1CCN2C(=O)c3ccccc3C12c1ccc(Cl)cc1 (stereo not given) 79.9%, O=C(c1ccc(F)c(F)c1)N1CCN2C(=O)c3ccccc3[C@@]12c1ccc(Cl)cc1 66.4%, O=C(c1ccc(F)cc1)N1CCN2C(=O)c3ccccc3C12c1ccccc1 (stereo not given) 83.6%, O=C(c1ccc(F)c(F)c1)N1CCN2C(=O)c3ccccc3C12c1ccc(Cl)cc1 (stereo not given) 80.5%, O=C(c1ccc(F)c(F)c1)N1CCN2C(=O)c3ccccc3C12c1ccccc1 (stereo not given) 87.2%

Source: PubChem BioAssay AID743098 (Vanderbilt Specialized Chemistry Center, 2013)
